In US20070020203A1, “Skin care composition” (priority 2005, published 2007):

Target: Mushroom Tyrosinase (Agaricus bisporus, UniProt C7FF04)
Assay: Comparative tyrosinase inhibitory activity (dopachrome optical density at 475 nm)
Assay type: biochemical
Procedure: All measurements were performed at room temperature (24 C) with a Beckman Coulter DU-640 spectrophotometer at a scan speed of 1200 nm/min with a spectral range from 300 to 700 nm.
Buffer solution • KH2PO4 99.8% & KOH 85+% (pH 7.4, 100 mM) • Mol. Wt. 136.09, VWR and Sigma-Aldrich • KH2PO4 (1362 mg) dissolved in distilled water (100 ml) and pH adjusted to 7.4 with a 2 M KOH solution • 2. Mushroom Tyrosinase solution (240 units per 1 ml) • 2440 units/mg, Sigma-Aldrich • Tyrosinase (2.5 mg) dissolved in 25 ml of distilled water • 3. L-DOPA solution (6.3 mM) • Mol. Wt. 197, Sigma-Aldrich • 33.1 mg are dissolved in distilled water (25 ml) • 4. L-Tyrosine solution (1.3 mM) • Mol. Wt. 181.2, Sigma-Aldrich • 23.5 mg are dissolved in distilled water (100 ml) • 5. Hydrogen peroxide solution (5 mM) • Sigma-Aldrich • 1/100 of 0.9/25 vol. dilution of a 50% wt. solution b) Skin Lightening Ingredients • 5. Emblica™ antioxidant (5 mM)—Lot # CA0106007 • Average Mol. Wt. 729, EMD Chemicals / Merck KGaA • Emblica (18.2 mg) dissolved in distilled water (5 ml) • 6. […]
The stock solutions were added in an orderly manner with quantities according to Table 1 as to obtain a final total volume of 3.0 ml for each preparation. […] After 15 min of reaction time, the spectra were recorded between 300 and 700 nm and the optical density at 475 nm (Dopachrome) measured.

Mushroom Tyrosinase, sequence (C7FF04 1-392): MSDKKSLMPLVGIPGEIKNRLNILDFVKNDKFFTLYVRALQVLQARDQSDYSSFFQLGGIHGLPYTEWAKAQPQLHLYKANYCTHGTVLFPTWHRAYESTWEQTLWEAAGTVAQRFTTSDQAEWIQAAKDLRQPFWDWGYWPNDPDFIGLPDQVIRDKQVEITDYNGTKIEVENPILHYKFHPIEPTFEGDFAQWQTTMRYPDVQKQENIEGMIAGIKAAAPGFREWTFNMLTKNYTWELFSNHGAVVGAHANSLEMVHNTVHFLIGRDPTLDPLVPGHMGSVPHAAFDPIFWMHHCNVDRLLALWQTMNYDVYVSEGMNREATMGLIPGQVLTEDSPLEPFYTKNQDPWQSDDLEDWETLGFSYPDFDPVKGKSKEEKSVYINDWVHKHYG
Mushroom Tyrosinase, sequence (G1K3P4 entry or part of it, further chain): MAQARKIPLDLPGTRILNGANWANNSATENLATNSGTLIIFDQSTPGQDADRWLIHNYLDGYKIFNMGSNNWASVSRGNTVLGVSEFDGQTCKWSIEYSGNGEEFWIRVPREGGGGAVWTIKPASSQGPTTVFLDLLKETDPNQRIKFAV

Oc1ccc(O)cc1 [Hydroquinone]
inhibitory activity against tyrosinase (in words) (DOPA as substrate): less effective | inhibitory activity against tyrosinase (in words) (tyrosine used as a substrate): excellent inhibitory activity
